# Test results: patent publication US20140271831A1, “RACECADOTRIL LIQUID COMPOSITIONS” (McNeil-PPC, Inc., priority 2013, published 2014)
# Assay: Stability of Racecadotril in Buffer Solutions
# Type: physicochemical
# Method: For comparative purposes, the stability of racecadotril was analyzed when solubilized in pH 4.5 Acetate buffer and pH 4.5 Citrate buffer (Table 3). • 1. Pipet 1 mL of Racecadotril solution into a 100 mL volumetric flask (V.F.) • 2. Dilute to volume with the same buffer used in the solution preparation. • 3. […] Parameters may be modified to optimize chromatography. • The assay of Racecadotril is determined by using the external standard injected. The degradation products levels are determined by % peak area relative to the Racecadotril peak. [table] [table] Mobil Phase A: Phosphate buffer, pH 2.5 (Buffer prep: dissolve 1 g of potassium dihydrogen phosphate in water, adjust to pH 2.5 with phosphoric acid, dilute to 1000 mL with water) Mobil Phase B: 100% Acetonitrile
structure (smiles),measurement,setting,value
CC(=O)SCC(Cc1ccccc1)C(=O)NCC(=O)OCc1ccccc1 (racemic) [Racecadotril],Racecadotril in pH 4.5 Acetate Buffer at 40° C. (% Racecadotril),1 Week,96.7%
same,Racecadotril in pH 4.5 Citrate Buffer at 40° C. (% Racecadotril),1 Week,95.3%
same,Racecadotril in pH 4.5 Acetate Buffer at 40° C. (% Racecadotril),2 Weeks,93.3%
same,Racecadotril in pH 4.5 Citrate Buffer at 40° C. (% Racecadotril),2 Weeks,91.2%
same,Racecadotril in pH 4.5 Acetate Buffer at 40° C. (% Racecadotril),3 Weeks,91.5%
same,Racecadotril in pH 4.5 Citrate Buffer at 40° C. (% Racecadotril),3 Weeks,89.0%
same,Racecadotril in pH 4.5 Acetate Buffer at 40° C. (% Racecadotril),4 Weeks,88.0%
same,Racecadotril in pH 4.5 Citrate Buffer at 40° C. (% Racecadotril),4 Weeks,85.4%
same,Racecadotril in pH 4.5 Acetate Buffer at 40° C. (% Racecadotril),12 Hours,99.69%
same,Racecadotril in pH 4.5 Citrate Buffer at 40° C. (% Racecadotril),12 Hours,99.63%
same,stability in buffer compared with water,40° C. and 4 weeks,more stable in a buffer than in water
same,Racecadotril in pH 4.5 Acetate Buffer at 40° C. (% Racecadotril),Initial,99.86%
same,Racecadotril in pH 4.5 Citrate Buffer at 40° C. (% Racecadotril),Initial,99.74%
